One experiment addresses T1, OX2R F227A (Homo sapiens, UniProt O43614, F227A).
T1 construct: expressed in transfected cells; host or cells: CHO-K1 stably expressing EA β-arrestin2
T1 sequence (O43614 1-444 F227A): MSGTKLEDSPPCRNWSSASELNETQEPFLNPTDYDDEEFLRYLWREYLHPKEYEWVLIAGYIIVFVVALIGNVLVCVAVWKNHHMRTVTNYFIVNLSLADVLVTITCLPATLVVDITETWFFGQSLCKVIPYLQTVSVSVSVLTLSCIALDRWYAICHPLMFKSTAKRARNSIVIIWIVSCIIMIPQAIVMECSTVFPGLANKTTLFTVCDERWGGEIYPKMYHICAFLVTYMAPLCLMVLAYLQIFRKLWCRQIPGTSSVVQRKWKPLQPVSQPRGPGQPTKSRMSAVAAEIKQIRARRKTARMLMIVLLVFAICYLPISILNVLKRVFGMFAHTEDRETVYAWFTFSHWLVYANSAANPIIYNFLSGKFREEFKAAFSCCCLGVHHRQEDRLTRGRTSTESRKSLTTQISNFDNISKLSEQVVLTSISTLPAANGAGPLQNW
Description: β-arrestin PathHunter assay, OX2R F227A. The class given is cell-based. The conditions noted are these: for EC50: β-arrestin recruitment; for beta-arrestin recruitment fold change: F227A, listed as OxB. On the procedure:
(§1) β-Arrestin recruitment activity was measured by using the PathHunter system (DiscoveRX) according to the manufacturer’s instruction. Receptor constructs used were the full-length wild-type (or mutant) human OX2R sequences cloned into pCMV-ProLink (DiscoveRX). CHO-K1 cells stably expressing EA β-arrestin2 (DiscoveRX) were plated on 384 well white plates (Thermo Fisher) at 4000 cells/well in HamF12 (Wako Pure Chemical Industries) supplemented with 10% fetal bovine serum (Corning) and penicillin-streptomycin (Wako Pure Chemical Industries) and incubated overnight at 37 °C under 5% CO2. Cells were transfected with plasmids encoding wild type or each mutant ProLink-tagged human OX2R using FuGENE HD (Promega). […] Detection reagent was added and incubated for 1 h at room temperature. Luminescent signal was detected using an EnVision plate reader (PerkinElmer). β-arrestin assays on different constructs were performed in two or three independent experiments (each done in quadruplicate). Dose response curves (shown in Supplementary Fig. 8) were fitted to the three-parameter model ‘log(agonist) vs response’ in GraphPad Prism to determine pEC50 values.

The target in the next experiment is T2, OX2R Q187A (Homo sapiens, UniProt O43614, Q187A).
T2 construct: expressed in transfected cells; host or cells: CHO-K1 stably expressing EA β-arrestin2
T2 sequence (O43614 whole entry Q187A): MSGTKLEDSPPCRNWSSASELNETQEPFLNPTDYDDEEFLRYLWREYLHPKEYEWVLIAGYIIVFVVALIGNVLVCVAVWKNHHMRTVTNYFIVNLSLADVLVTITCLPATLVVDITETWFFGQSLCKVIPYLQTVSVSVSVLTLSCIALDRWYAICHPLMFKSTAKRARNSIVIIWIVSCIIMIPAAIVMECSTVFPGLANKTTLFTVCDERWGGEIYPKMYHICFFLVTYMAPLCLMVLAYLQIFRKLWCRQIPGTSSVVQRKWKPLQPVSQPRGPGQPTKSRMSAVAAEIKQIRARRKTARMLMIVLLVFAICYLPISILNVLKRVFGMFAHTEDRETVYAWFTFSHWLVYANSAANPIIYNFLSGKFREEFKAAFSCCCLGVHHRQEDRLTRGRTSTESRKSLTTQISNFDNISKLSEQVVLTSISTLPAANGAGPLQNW
Description: β-arrestin PathHunter assay, OX2R Q187A. Conditions: β-arrestin recruitment. The class given is cell-based. How it is done: as §1
For orientation: Recruitment of arrestin is a read-out of receptor activation apart from second messengers.

Another experiment addresses T3, OX2R Y232A (Homo sapiens, UniProt O43614, Y232A).
T3 construct: expressed in transfected cells; host or cells: CHO-K1 stably expressing EA β-arrestin2
Description: β-arrestin PathHunter assay, OX2R Y232A. It is filed as cell-based. Conditions: β-arrestin recruitment. On the procedure: as §1

The target in the next experiment is T4, OX2R F346A (Homo sapiens, UniProt O43614, F346A).
T4 construct: expressed in transfected cells; host or cells: CHO-K1 stably expressing EA β-arrestin2
T4 sequence (O43614 whole entry F346A): as the sequence (O43614 whole entry Q187A) above, with A187Q, F346A counted along it
The experiment is described as follows: β-arrestin PathHunter assay, OX2R F346A. The class given is cell-based. The conditions noted are these: β-arrestin recruitment. How it is done: as §1

The test system of another experiment is OX2R. The conditions noted are these: cited from earlier work.
Another experiment concerns the target T5, human OX1R wild-type (Homo sapiens, UniProt O43613).
T5 construct: FLAG; expressed in transfected cells; host or cells: HEK293
T5 sequence (O43613 1-425): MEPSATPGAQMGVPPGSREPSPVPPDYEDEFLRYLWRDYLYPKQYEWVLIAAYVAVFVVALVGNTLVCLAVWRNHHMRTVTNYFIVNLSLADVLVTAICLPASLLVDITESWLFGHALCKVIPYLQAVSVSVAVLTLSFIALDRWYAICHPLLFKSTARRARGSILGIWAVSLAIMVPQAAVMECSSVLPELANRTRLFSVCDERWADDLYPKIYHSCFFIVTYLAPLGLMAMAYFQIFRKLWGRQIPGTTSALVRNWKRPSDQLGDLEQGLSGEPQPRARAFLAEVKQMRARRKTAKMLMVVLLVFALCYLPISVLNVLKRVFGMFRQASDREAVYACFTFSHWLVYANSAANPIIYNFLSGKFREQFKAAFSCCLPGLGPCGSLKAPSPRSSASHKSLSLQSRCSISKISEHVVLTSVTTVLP
The experiment is described as follows: IP accumulation assay, OX1R WT. It is filed as cell-based. An excerpt: The IP assay was adapted from a prior precedent. HEK293 cells were maintained in DMEM-high glucose (Millipore Sigma) supplemented with 5% fetal bovine serum (Corning) and penicillin-streptomycin (Millipore Sigma). Receptor constructs used were the full-length wild-type (or mutant) human OX1R and OX2R sequences cloned into pCDNA3. To enhance the Emax in the IP assay, a plasmid encoding full-length human Gαq subunit[66] was co-transfected into HEK293 cells with plasmids encoding orexin receptor constructs using Lipofectamine 3000 (Thermo Fisher). 24 h after transfection, the cells were plated on poly-D-lysine coated (Millipore Sigma) tissue culture-treated 96 well white plates with clear bottoms (Perkin Elmer) at 30,000 cells per well in Inositol-free DMEM (MP Biomedicals) supplemented with 5% fetal bovine serum, 4 mM L-glutamine (Millipore Sigma), penicillin-streptomycin, and about 5 uCi (5 ul) per ml myo-[2-3H] inositol (Perkin Elmer). The following day, the media was replaced with agonists that were diluted in HBSS (Millipore Sigma) containing 10 mM lithium chloride (Millipore Sigma) and incubated at 37 °C for 45 min. Then agonists were removed and cells were lysed on ice for 30 min with 10 mM formic acid (Millipore Sigma). 1.25 mg of poly-lysine coated YSI SPA beads (Perkin Elmer) was added to each well. The plates were mixed on an orbital shaker for 30 min. The plates were read on a MicroBeta scintillation counter (Perkin Elmer) the following day. IP accumulation assays on different constructs were performed in n ≥ 3 independent experiments (each done in duplicate), where n is shown in Supplementary Table 2.

A further experiment deals with T6, OX2R V114A (Homo sapiens, UniProt O43614, V114A).
T6 construct: expressed in transfected cells; host or cells: CHO-K1 stably expressing EA β-arrestin2
T6 sequence (O43614 whole entry V114A): as the sequence (O43614 whole entry Q187A) above, with V114A, A187Q counted along it
Description: β-arrestin PathHunter assay, OX2R V114A. It is filed as cell-based. On the procedure: as §1

The target of another experiment is T7, OX2R K327A (Homo sapiens, UniProt O43614, K327A).
T7 construct: expressed in transfected cells; host or cells: CHO-K1 stably expressing EA β-arrestin2
T7 sequence (O43614 whole entry K327A): as the sequence (O43614 whole entry Q187A) above, with A187Q, K327A counted along it
The experiment is described as follows: β-arrestin PathHunter assay, OX2R K327A. It is filed as cell-based. Conditions: β-arrestin recruitment. How it is done: as §1

Values joined by “and” are separate entries in the source; they are usually repeats but may differ in a detail not shown here. Equal entries are not always repeated. Where two headings read alike, the source gives them in different places. Bounds are passed on as bounds.

T3 sequence (O43614 whole entry Y232A): as the sequence (O43614 whole entry Q187A) above, with A187Q, Y232A counted along it

Regarding `COC(=O)N1CCC[C@H](NS(C)(=O)=O)[C@@H]1CO[C@H]1CC[C@@H](c2ccccc2)CC1` [TAK-925, methyl (2R,3S)−3-[(methylsulfonyl)amino]−2-{[(cis−4-phenylcyclohexyl)oxy]methyl}piperidine-1-carboxylate], the EC50 on OX2R F227A (read-out: EC50) was greater than 30 µM; at OX2R F227A (read-out: pEC50 (converted)), greater than 30.2 µM; at OX2R Q187A it was 3.2 µM; at OX2R Y232A, 8.5 µM; on OX2R F346A, 0.35 µM; at human OX1R wild-type (IP accumulation, non-saturating), greater than 100 µM. Moreover, the EC50 on OX2R V114A (β-arrestin recruitment) was 2.2 µM; on OX2R K327A, 2.3 µM. In the experiment on OX2R, the “potency for OX2R activation” value is recorded as “low-nanomolar”. The activation at 100 µM at human OX1R wild-type (0.75 h, TAK-925 conc (log, M) -4.00, normalized to S103T/A127T Emax) was 59%. Further, on human OX1R wild-type (0.75 h, TAK-925 conc (log, M) -4.48), the activation at 33.1 µM was 40.3%. On human OX1R wild-type (0.75 h, TAK-925 conc (log, M) -4.95), the activation at 11.2 µM amounted to 23.1%. At human OX1R wild-type (0.75 h, TAK-925 conc (log, M) -5.43), this molecule showed an activation at 3.72 µM of 13.6%. Further, the activation at 1.23 µM on human OX1R wild-type (0.75 h, TAK-925 conc (log, M) -5.91) is 8.76%. On human OX1R wild-type (0.75 h, TAK-925 conc (log, M) -7.34), this molecule yielded an activation at 0.0457 µM of 7.24%. Also, the pEC50 result at human OX1R wild-type (IP accumulation) is recorded as “not saturating”.
With orexin B, the “beta-arrestin recruitment fold change” value is 9.362 fold and 8.115 fold and 7.068 fold and 6.668 fold on OX2R F227A (OxB concentration -6.00 (log, M)); 5.797 fold and 5.207 fold and 4.992 fold and 3.983 fold at OX2R F227A (OxB concentration -6.52 (log, M)); 2.141 fold and 2.264 fold and 1.690 fold and 2.115 fold on OX2R F227A (OxB concentration -7.00 (log, M)); 0.997 fold and 1.239 fold and 0.840 fold and 1.032 fold on OX2R F227A (OxB concentration -7.52 (log, M)); 0.797 fold and 0.852 fold and 0.855 fold and 0.772 fold on OX2R F227A (OxB concentration -8.00 (log, M)); 0.707 fold and 0.923 fold and 0.738 fold and 0.787 fold at OX2R F227A (OxB concentration -8.52 (log, M)). Further, the “beta-arrestin recruitment fold change” value at OX2R F227A (OxB concentration -9.00 (log, M)) was 0.670 fold and 0.812 fold and 0.735 fold and 0.836 fold; on OX2R F227A (OxB concentration -10.00 (log, M)), 0.813 fold and 0.979 fold and 0.709 fold and 0.989 fold; on OX2R V114A (V114A, OxB concentration -8.00 (log, M), listed as OxB), 1.594 fold and 2.704 fold and 1.365 fold and 1.888 fold.

Values taken from publication PMC9133036 (Nature Communications, 2022).
